Results on 8 compounds are retold here after ChEMBL document CHEMBL1201862, “PubChem BioAssay data set” (2004).

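Five concentrations, 48 hours, 96-well plates. The concentration for 50% growth inhibition is given as GI50.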 The source made the active and inactive calls. No stated cut-off is given here; in the data, active = GI50 up to about 1.1 µM and inactive = higher.

Among the test systems are DU-145; PC-3; HT-29; RXF 393; IGROV-1; Malme-3M; OVCAR-3; HCT-116; OVCAR-8; UO-31; RPMI-8226; UACC-257; COLO 205; SK-MEL-28; HCT-15; HOP-92; KM12; HOP-62; MDA-MB-435; HCC 2998.
Common to all, as to experiment: inhibition of tumour cell growth, NCI panel, 48 h

Take `c1nc(NCCc2c[nH]cn2)c2nc[nH]c2n1`: the GI50 in the test with DU-145, in the test with PC-3, in the test on HT-29, with RXF 393, in the test with IGROV-1 and in the test with Malme-3M was > 100 µM (inactive) each time. Besides, the GI50 with OVCAR-3, in the test with HCT-116, in the test on OVCAR-8, in the test on UO-31, in the test on RPMI-8226 and in the test with UACC-257 was > 100 µM (inactive) in each case. For the same compound, the GI50 with COLO 205 is > 100 µM (inactive); in the test with SK-MEL-28, > 100 µM (inactive); in the test on HCT-15, above 100 µM; with HOP-92 it was > 100 µM (inactive); in the test on KM12 it was > 100 µM (inactive); with HOP-62, > 100 µM (inactive). For the same compound, the GI50 in the test on MDA-MB-435 is > 100 µM (inactive).

In the case of `COC(=O)c1nn2ccc3ccccc3c2c1C(=O)OC`, the GI50 with DU-145 is > 100 µM (inactive); in the test with PC-3, 47.8 µM (inactive); with HT-29, 48 µM (inactive); with RXF 393 it was 59.2 µM (inactive); with IGROV-1, 88.9 µM (inactive); in the test on Malme-3M, > 100 µM (inactive). In addition, the GI50 is 65.9 µM (inactive) with HCT-116; > 100 µM (inactive) in the test on OVCAR-8; 32.2 µM (inactive) with UO-31; 60.7 µM (inactive) with UACC-257; > 100 µM (inactive) with COLO 205; > 100 µM (inactive) in the test on SK-MEL-28. In addition, the GI50 is 54.3 µM in the test on HCT-15; 96.2 µM (inactive) in the test on HOP-92; 58.7 µM (inactive) in the test with KM12; 50.8 µM (inactive) in the test on HOP-62; 76.7 µM (inactive) in the test with MDA-MB-435.

For the compound `C=C/C(C)=C\CC1[C@](C)(O)CC[C@H]2C(C)(C)C(O)CC[C@]12C` (some centres not stated), the GI50 in the test on DU-145 was > 100 µM (inactive); with PC-3 it was 70 µM (inactive); in the test on HT-29, 44.3 µM (inactive); with RXF 393, 95.1 µM (inactive); in the test with IGROV-1, > 100 µM (inactive); in the test with Malme-3M, > 100 µM (inactive). For the same compound, the GI50 was 92.3 µM (inactive) with OVCAR-3; 54.8 µM (inactive) in the test with HCT-116; > 100 µM (inactive) in the test on OVCAR-8; > 100 µM (inactive) in the test with UO-31; 42.6 µM (inactive) in the test on RPMI-8226; > 100 µM (inactive) with UACC-257. Further, the GI50 with COLO 205 is > 100 µM (inactive); in the test on SK-MEL-28 it was > 100 µM (inactive); with HCT-15 it was above 100 µM; in the test with HOP-92 it was > 100 µM (inactive); in the test with KM12 it was > 100 µM (inactive); in the test with MDA-MB-435 it was > 100 µM (inactive).

Take `CCCCNC(=S)Nc1nc(C(=O)NNC(=O)c2ccccc2)cs1`: the GI50 in the test on DU-145 was 19.6 µM (inactive); with PC-3, 15.5 µM (inactive); with HT-29 it was 24 µM (inactive); in the test on HCC 2998 it was 13.7 µM (inactive); in the test with IGROV-1, 13.8 µM (inactive); in the test with Malme-3M, 18.7 µM (inactive). Moreover, the GI50 was 6.14 µM (inactive) with OVCAR-3; 13.1 µM (inactive) in the test with HCT-116; 17.4 µM (inactive) in the test on OVCAR-8; 14.1 µM (inactive) with UO-31; 26.1 µM (inactive) with RPMI-8226; 17.9 µM (inactive) in the test with UACC-257. The GI50 with COLO 205 is 13.3 µM (inactive); in the test with HCT-15, 6 µM; in the test with HOP-92, 40.2 µM (inactive); in the test with KM12 it was 15.2 µM (inactive); with HOP-62, 18 µM (inactive); with MDA-MB-435 it was 19.7 µM (inactive).

Turning to `COc1ccc(CN(Cc2ccc(OC)cc2)C(=O)CC2(O)C=CCC2)cc1` (configuration not stated), the GI50 was > 100 µM (inactive) in the test on DU-145; 28 µM (inactive) in the test on PC-3; 66.7 µM (inactive) in the test on HT-29; 69.2 µM (inactive) with HCC 2998; > 100 µM (inactive) in the test with IGROV-1; > 100 µM (inactive) with Malme-3M. Further, the GI50 in the test on OVCAR-3 was 98.2 µM (inactive); with HCT-116, 55.3 µM (inactive); in the test with OVCAR-8 it was 37.5 µM (inactive); in the test with UO-31, 44.9 µM (inactive); in the test with RPMI-8226, 31.6 µM (inactive); with UACC-257 it was 43.4 µM (inactive). Moreover, the GI50 with COLO 205 is 40 µM (inactive); in the test on SK-MEL-28 it was > 100 µM (inactive); with HCT-15, 78.7 µM; in the test with HOP-92 it was > 100 µM (inactive); in the test with KM12 it was 45.9 µM (inactive); with HOP-62, > 100 µM (inactive). For the same compound, in the test on MDA-MB-435, the GI50 was 71.4 µM (inactive).

On to `C=C(C)C1Cc2cc(C(C)=O)ccc2O1` (configuration not stated), for which the GI50 with DU-145, with PC-3, in the test on HT-29, in the test with HCC 2998, with IGROV-1 and in the test with Malme-3M was > 100 µM (inactive) throughout. Also, the GI50 with OVCAR-3, in the test on HCT-116, in the test with OVCAR-8, in the test on UO-31, in the test with RPMI-8226 and with UACC-257 was > 100 µM (inactive) each time. Further, the GI50 was > 100 µM (inactive) with COLO 205; > 100 µM (inactive) in the test with SK-MEL-28; above 100 µM in the test with HCT-15; > 100 µM (inactive) with HOP-92; > 100 µM (inactive) in the test on KM12; > 100 µM (inactive) with MDA-MB-435.

For the compound `Oc1ccc[nH]c1=[Se]`, the GI50 is 62.2 µM (inactive) in the test on DU-145; > 100 µM (inactive) in the test on PC-3; > 100 µM (inactive) in the test with HT-29; > 100 µM (inactive) in the test with RXF 393; 66.7 µM (inactive) in the test on IGROV-1; 50.1 µM (inactive) in the test on Malme-3M. In addition, the GI50 in the test on OVCAR-3 was > 100 µM (inactive); in the test on HCT-116, 33.9 µM (inactive); with OVCAR-8 it was 37.2 µM (inactive); in the test on UO-31 it was 83.2 µM (inactive); in the test with RPMI-8226, 40.6 µM (inactive); in the test with UACC-257, > 100 µM (inactive). In addition, the GI50 in the test on COLO 205 was 18.7 µM (inactive); in the test on SK-MEL-28, 71.1 µM (inactive); with HCT-15, 44.4 µM; in the test with HOP-92 it was > 100 µM (inactive); in the test on KM12 it was 45.5 µM (inactive); with HOP-62, 29.1 µM (inactive). Besides, the GI50 in the test on MDA-MB-435 is 41.8 µM (inactive).

Consider `Cc1ccccc1S(=O)(=O)Nn1cnc2ccc(S(=O)(=O)Nc3ccc(Cl)cc3)cc2c1=O`, for which the GI50 in the test on DU-145 is > 100 µM (inactive); in the test on PC-3, 16.1 µM (inactive); in the test on HT-29 it was > 100 µM (inactive); in the test with HCC 2998, > 100 µM (inactive); in the test with IGROV-1, 7.59 µM (inactive); in the test on Malme-3M, > 100 µM (inactive). Moreover, the GI50 in the test with OVCAR-3 is 85.5 µM (inactive); in the test on HCT-116, > 100 µM (inactive); in the test with OVCAR-8, > 100 µM (inactive); in the test with UO-31, 18.1 µM (inactive); with RPMI-8226, 51.8 µM (inactive); in the test with UACC-257, > 100 µM (inactive). Also, the GI50 in the test with COLO 205 is > 100 µM (inactive); in the test with SK-MEL-28, > 100 µM (inactive); with HCT-15, above 100 µM; with HOP-92 it was > 100 µM (inactive); in the test with KM12, 12.4 µM (inactive); with HOP-62, > 100 µM (inactive). In the test on MDA-MB-435, the GI50 was 82.8 µM (inactive).
